Experimental data: patent US4783442A, “B-cell differentiating peptides” (Ortho Pharmaceutical Corporation, priority 1986, dated 1988)
Where a SMILES comes first, the peptide text is derived from it.

Legend:
pro-Lyb-2 cells [1] = experiment: Induction assay: Lyb-2 expression (B-cell differentiation); assay type: cell-based, mouse; settings: 3 hr incubation; compared with natural bursopoietin at the same concentration
Method: To determine the activity and immunological characteristics of one of the subject peptide, certain related peptides prepared in the above Examples, and natural bursopoietin, an induction assay was carried out substantially as described in Audhya, et al., Proc. Natl. Acad. Sci. USA, 81,2847 (1984).
In brief, prothymocytes (Thy-1^-) and pro-Lyb-2 cells were coenriched from B6-Lyb-2.1 congenic mouse spleen by bovine serum albumin density gradient centrifugation (Path-O-Cyte 5, lot 35, 1 ml of 35/29/26/23/18/12%). The 26/23 and 23/18 interface layers were combined, and Thy-1^+ and Lyb-2^+ cells were removed by reaction with monoclonal Thy-1.2 and Lyb-2.1 antibodies prepared according to Scheid, et al., Immunogenetics, 9, 423-433 (1979), and adherence to plates coated with affinity-purified rabbit anti-mouse F(ab)2. The washed nonadherent cells were used for both assays. This starting population contained 30-40% prothymocytes and 30-40% pro-Lyb-2 cells (known to represent separate committed precursor populations) as described in Scheid, et al., J. Exp. Med., 147, 1727-1743 (1978).
Cells (5×10^6 cells per 0.5 ml of RPMI 1640 medium) were incubated in 5-ml plastic tubes with equal volumes of test compound in serial dilution in RPMI 1640 medium in a humidified 5% CO2 atmosphere for 3 hr. […]

pro-Lyb-2 cells [2] = settings: from the referenced articles; cited from earlier work

Compound	activity in differentiation induction assay (FIG. 1) (pro-Lyb-2 cells [1])	induction of differentiation of T-cells and B-cells (pro-Lyb-2 cells [2])
NCCCC[C@H](N)C(=O)N[C@@H](Cc1c[nH]cn1)C(=O)NCC(N)=O [H-LYS-HIS-GLY-NH2, L-Lysyl-L-Histidyl-Glycineamide] (H-Lys-His-Gly-NH2)	possessed the activity of the natural isolate	
ubiquitin		nonselectively induce the differentiation of both T-cells and B-cells
